Test results: patent publication US7175853B1, “Therapeutic system which can be moisture-activated” (LTS Lohmann Therapie-Systeme AG, priority 1998, dated 2007)

Assay: Dehydration behaviour of activators by Difference Scanning Calorimetry (DSC)
Format: physicochemical
Settings: FIG. 14a-c
Source text: The dehydration behaviour of these substances was examined in three example substances by Difference Scanning Calorimetry (DSC). This thermal analysis provides information on the stages of dehydration taking place under energy absorption, and on the respective typical temperature.

O.O.O.O.O.O=[Si]([O-])[O-].[Na+].[Na+] [Na2SiO3.5H2O, sodium metasilicate pentahydrate]
dehydration temperature: 86.5 °C
